What was measured:
[1] = Human liver microsomal clearance; format: in vitro ADME; conditions: both sexes, liver microsomes, Table B, 0.5 μM compound, 0.25 mg/mL microsomes, NADPH, 37° C., read-out: Human liver microsomal intrinsic clearance CLint
Method: Pooled mixed gender human liver microsomes were purchased from BioIVT at a concentration of 20 mg protein/mL and stored at −80° C. Incubations were conducted in V-bottomed 350 μL polypropylene 96-well plates. Compounds were diluted in phosphate buffer (final concentrations 0.5 μM compound, 0.5% DMSO) and mixed with diluted liver microsomes (fc 0.25 mg/mL). This mixture was aliquoted onto the assay plate (six wells per compound) and pre-warmed at 37° C. for ten minutes. Addition of NADPH (fc 0.5 mM, final incubation volume 100 μL) to each well started the time course. Reactions were stopped at 0.5, 3, 5, 10, 20 & 30 minutes by addition of 150 μL acetonitrile containing internal standard (IS; 0.125 μg/mL daidzein) and stopped samples were removed to a clean polypropylene plate. At the end of the assay the plate was refrigerated for an hour and then centrifuged at 3000 rpm for 10 minutes at 4° C. A sample of the supernatant was removed to a fresh plate and diluted 10-fold with 50:50 acetonitrile:water, then heat sealed. Analysis was by liquid chromatography coupled with tandem mass spectrometry (LC-MS/MS) for analyte and IS levels. Ratios of the analyte and IS peak areas were generated for results calculation (IS ratio). Dextromethorphan and verapamil were included in each experiment as controls for high clearance compounds. IS ratio data were converted into natural log values which were plotted against time and a linear regression fit applied. The slope of the line was returned and converted into the elimination constant (kel) by multiplying by −1. The elimination constant was used to calculate the in vitro CLint: in vitro CLint (μL/min/mg protein) is kel* (1000/protein conc in mg/mL).

[2] = biological target: human Kv7.2 (Homo sapiens (Human), UniProt O43526); assay: SyncroPatch 384 electrophysiology, CHO cells stably expressing human Kv7.2; format: cell-based
Method: (§1) The potency of Kv7 potentiators was determined using the SyncroPatch 384 (Nanion) high throughput electrophysiology platform.
(§2) CHO cells stably expressing either human Kv7.2, Kv7.4 or Kv7.5/7.3 under a constitutive CMV promoter were used for these studies. Cells were maintained in F12 Hams+1 mM L-glutamine (Hyclone) supplemented with 10% FBS (Sigma), 0.3×NEAA (Non-essential Gamino-acids) and 400 ug/ml G418 at 37° C. in 5% CO2. Cells were cultured in T-225 flasks (Nunc) for 2-3 days to reach 85-95% confluence prior to electrophysiological recording.
(§3) Earle's balanced salt solution (in mM): 135 NaCl, 5.4 KCl, 5 Glucose, 2 CaCl2, 1 MgCl2, 5 HEPES, pH 7.4. Seal enhancer solution (in mM): 90 NaCl, 3 KCl, 35 CaCl2, 10 MgCl2, 10 HEPES, pH 7.4. Extracellular recording solution (in mM): 71 NaCl, 70 NMDG, 13 KCl, 5 Glucose, 2 CaCl2, 1 MgCl2, 10 HEPES, pH 7.4. Intracellular recording solution (in mM): 130 KF, 20 KCl, 4 EGTA, 10 HEPES, 2 EDTA, 0.01 Escin, pH 7.2.
(§4) Cells were harvested for electrophysiological recording upon reaching appropriate confluence. Cells were first washed in DPBS (Hyclone, Cat #SH30028.03) and then 2 ml of Accutase (MP Biomedicals #1000449) was added at 28° C. until ˜90% of cells were suspended. F12 HAM's media+1 mM L-glutamine (Hyclone, SH30026.02) was then added to the flask to dilute the accutase. Cells were then triturated until a single cell suspension was achieved, a cell count was performed, and cells were centrifuged for 2 min. at 1,000 rpm. Media was then aspirated, and cells were resuspended in Earle's balanced salt solution to a concentration of 0.75×10^6 cells/ml and allowed to recover for 25 min at 10° C.
(§5) At the beginning of each assay, 20 μl of cell suspension was dispensed into each well of a multi-hole 384-well SyncroPatch chip by the onboard pipettor. Cell sealing was initiated, and seal enhancer solution was added to facilitate seal formation. Upon completion of sealing, cells were washed 3 times with extracellular recording solution and the assay voltage protocol was started. Human Kv7.2, Kv7.4 or Kv7.5/7.3 channels were evaluated using a voltage protocol in which cells were voltage-clamped at a holding potential of −60 mV. Potassium currents were continuously activated with a series of three voltage steps to −30 mV for 3 seconds, 40 mV for 1 second and −90 mV for 4 seconds with 12 seconds between successive voltage sweeps. Potassium currents were measured from the −90 mV repolarizing step. Baseline current was assessed for 3.5 minutes prior to the addition of 5.6 μM zinc pyrithione (1 μM for Kv7.4). Kv7.2, Kv7.4 or Kv7.5/7.3 current in the presence of zinc pyrithione was acquired over five minutes to allow channels to reach steady state activity prior to addition of test agents. Channel activity was monitored for three minutes preceding the addition of 30 μM ML-213 (3 minutes) to achieve maximum activation.
(§6) Data were collected on the SyncroPatch platform using PatchControl software (Nanion) and processed and analyzed using DataControl Software (Nanion). Percent activation was calculated from potassium current as follows: The average current for the 5 sweeps in the presence of zinc pyrithione immediately preceding test agent addition was taken as the ‘control’ data. Likewise, the average potassium current in the presence of test agents 5 sweeps immediately preceding addition of 30 μM ML-213 was determined for ‘drug’ data. The average potassium current 5 sweeps immediately prior to addition of 150 mM TEA+10 μM XE-991 was determined for ‘max activation’ data while average currents from 5 sweeps immediately following addition of TEA was determined for ‘max inhibition’ data. Percent activation for each of the 384-wells of a sealchip was calculated as ((‘drug’−‘max inhibition’)/(‘max activation’−‘max inhibition’))*100 with Pipeline Pilot (Accelrys). […]

[3] = biological target: human Kv7.5/7.3 (Homo sapiens (Human), UniProt O43525+Q9NR82); assay: SyncroPatch 384 electrophysiology, CHO cells stably expressing human Kv7.5/7.3; format: cell-based; conditions: Table A; for Kv7.5/7.3/Kv7.2 selectivity ratio: Kv7.5/7.3 EC50 over Kv7.2 EC50
Method: as §1, §2, §3, §4, §5, §6

[4] = Table 1, CHO cells, potassium current at -90 mV step, in presence of zinc pyrithione

human Kv7.5/7.3, sequence (Q9NR82 whole entry): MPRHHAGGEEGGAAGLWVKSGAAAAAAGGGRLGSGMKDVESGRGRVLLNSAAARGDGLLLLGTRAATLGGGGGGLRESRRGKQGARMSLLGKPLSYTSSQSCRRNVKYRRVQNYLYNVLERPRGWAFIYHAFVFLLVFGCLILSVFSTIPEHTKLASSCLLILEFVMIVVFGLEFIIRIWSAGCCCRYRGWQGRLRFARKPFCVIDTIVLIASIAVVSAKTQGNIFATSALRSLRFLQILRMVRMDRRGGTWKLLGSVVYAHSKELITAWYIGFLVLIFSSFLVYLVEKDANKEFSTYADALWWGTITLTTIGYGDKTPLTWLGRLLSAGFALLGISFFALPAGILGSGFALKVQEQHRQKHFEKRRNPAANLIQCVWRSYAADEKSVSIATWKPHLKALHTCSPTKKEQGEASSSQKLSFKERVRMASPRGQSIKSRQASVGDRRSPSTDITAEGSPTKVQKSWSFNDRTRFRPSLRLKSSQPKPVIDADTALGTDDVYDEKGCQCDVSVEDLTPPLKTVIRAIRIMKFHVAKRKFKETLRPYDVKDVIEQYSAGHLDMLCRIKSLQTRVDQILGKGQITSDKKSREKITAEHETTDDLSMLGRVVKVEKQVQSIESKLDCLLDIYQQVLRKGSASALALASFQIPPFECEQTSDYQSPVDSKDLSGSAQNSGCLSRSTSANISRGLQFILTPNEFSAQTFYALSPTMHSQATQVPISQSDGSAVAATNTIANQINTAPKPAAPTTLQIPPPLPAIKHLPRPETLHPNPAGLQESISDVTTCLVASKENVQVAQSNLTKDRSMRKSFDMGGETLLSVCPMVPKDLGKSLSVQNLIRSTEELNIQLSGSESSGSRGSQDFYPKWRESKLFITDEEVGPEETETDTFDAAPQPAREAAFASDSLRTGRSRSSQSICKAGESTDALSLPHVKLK
human Kv7.5/7.3, sequence (O43525 whole entry): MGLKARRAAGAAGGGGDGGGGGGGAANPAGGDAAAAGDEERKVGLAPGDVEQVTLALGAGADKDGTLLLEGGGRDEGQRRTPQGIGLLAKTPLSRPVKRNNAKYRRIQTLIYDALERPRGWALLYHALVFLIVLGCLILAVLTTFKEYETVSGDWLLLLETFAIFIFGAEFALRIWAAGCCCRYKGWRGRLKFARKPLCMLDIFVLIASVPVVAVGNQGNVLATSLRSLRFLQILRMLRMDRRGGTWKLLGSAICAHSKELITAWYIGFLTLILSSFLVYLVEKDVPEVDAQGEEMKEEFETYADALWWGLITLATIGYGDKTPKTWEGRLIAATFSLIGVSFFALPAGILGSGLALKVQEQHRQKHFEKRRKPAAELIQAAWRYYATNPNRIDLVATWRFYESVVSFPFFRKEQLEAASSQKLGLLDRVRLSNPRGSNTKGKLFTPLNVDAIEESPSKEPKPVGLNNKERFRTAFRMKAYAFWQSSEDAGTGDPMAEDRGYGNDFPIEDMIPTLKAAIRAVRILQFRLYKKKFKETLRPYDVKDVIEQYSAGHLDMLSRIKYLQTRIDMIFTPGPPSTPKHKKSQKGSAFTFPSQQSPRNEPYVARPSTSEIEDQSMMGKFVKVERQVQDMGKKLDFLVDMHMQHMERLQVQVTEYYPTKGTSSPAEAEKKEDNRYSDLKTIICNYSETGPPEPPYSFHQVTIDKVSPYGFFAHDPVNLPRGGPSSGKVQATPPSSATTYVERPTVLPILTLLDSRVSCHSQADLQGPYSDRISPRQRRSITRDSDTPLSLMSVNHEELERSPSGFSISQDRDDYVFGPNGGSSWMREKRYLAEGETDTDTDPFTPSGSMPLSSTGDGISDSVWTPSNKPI
human Kv7.2, sequence (O43526 whole entry): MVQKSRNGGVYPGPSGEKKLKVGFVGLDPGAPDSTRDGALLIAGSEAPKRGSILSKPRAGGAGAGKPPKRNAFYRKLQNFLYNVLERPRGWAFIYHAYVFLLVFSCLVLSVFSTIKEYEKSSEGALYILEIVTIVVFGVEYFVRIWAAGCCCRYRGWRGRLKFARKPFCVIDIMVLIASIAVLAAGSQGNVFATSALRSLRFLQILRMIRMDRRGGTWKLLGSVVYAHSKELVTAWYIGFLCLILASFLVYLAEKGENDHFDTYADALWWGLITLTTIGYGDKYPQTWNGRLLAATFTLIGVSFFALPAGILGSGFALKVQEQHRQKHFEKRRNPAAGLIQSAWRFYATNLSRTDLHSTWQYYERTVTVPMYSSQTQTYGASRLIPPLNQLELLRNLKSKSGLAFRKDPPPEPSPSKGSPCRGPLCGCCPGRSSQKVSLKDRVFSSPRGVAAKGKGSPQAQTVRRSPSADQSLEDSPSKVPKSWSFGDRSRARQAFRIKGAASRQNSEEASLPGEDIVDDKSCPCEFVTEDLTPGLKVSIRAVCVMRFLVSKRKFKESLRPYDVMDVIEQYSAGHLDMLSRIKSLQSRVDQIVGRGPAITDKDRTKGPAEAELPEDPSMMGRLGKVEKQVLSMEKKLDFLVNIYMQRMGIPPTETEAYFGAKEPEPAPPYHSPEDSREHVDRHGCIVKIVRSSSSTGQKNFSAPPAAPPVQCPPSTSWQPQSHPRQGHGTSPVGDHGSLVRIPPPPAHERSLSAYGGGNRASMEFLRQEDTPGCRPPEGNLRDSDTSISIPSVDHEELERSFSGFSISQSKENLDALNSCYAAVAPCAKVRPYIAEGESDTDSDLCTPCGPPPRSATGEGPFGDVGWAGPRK

For `O=C(NCc1ccnc(OC(F)F)c1)N[C@H]1CC2(CCC2)[C@H]1O` (racemic) [Example 26, 1-[[2-(difluoromethoxy)pyridin-4-yl]methyl]-3-[rac-(2R,3S)-3-hydroxyspiro[3.3]heptant-2-yl]urea], the microsomal CLint at 0.5 μM [1] was 11.5 µL/min/mg and the EC50 [2, 4] was 440 nM.
With `O=C(NCc1ccnc(-n2cccn2)c1)NC1CCOC2(CCCC2)C1` (centres unmarked) [Example 2, 1-(6-oxaspiro[4.5]decan-9-yl)-3-[(2-pyrazol-1-ylpyridin-4-yl)methyl]urea] the EC50 [2, 4] was 8490 nM.
In the case of `O=C(NCc1ccnc(OC(F)F)c1)NC1COC2(CCCC2)C1` (centres unmarked) [Example 3, 1-[[2-(difluoromethoxy)pyridin-4-yl]methyl]-3-(1-oxaspiro[4.4]nonan-3-yl)urea], the EC50 [2, 4] is reported as 500 nM.
In the case of `O=C(NCc1ccnc(OC(F)F)c1)NC1CC2(CCC2)C1` [Example 4, 1-[[2-(difluoromethoxy)pyridin-4-yl]methyl]-3-spiro[3.3]heptan-2-ylurea], the EC50 [2, 4] is reported as 20 nM.
With `CC(F)(F)COc1cc(CNC(=O)NC2CC3(CCC3)C2)ccn1` [Example 5, 1-[[2-(2,2-difluoropropoxy)pyridin-4-yl]methyl]-3-spiro[3.3]heptan-2-ylurea] the EC50 [2, 4] was 20 nM.
In the case of `CC(F)COc1cc(CNC(=O)NC2CC3(CCC3)C2)ccn1` (centres unmarked) [Example 6, 1-[[2-(2-fluoropropoxy)pyridin-4-yl]methyl]-3-spiro[3.3]heptan-2-ylurea], the EC50 [2, 4] is reported as 60 nM.
`O=C(NCc1ccnc(OCC2CC2)c1)NC1CC2(CCC2)C1` [Example 7, 1-[[2-(cyclopropylmethoxy)pyridin-4-yl]methyl]-3-spiro[3.3]heptan-2-ylurea] showed an EC50 [2, 4] of 50 nM.
For `O=C(NCc1ccnc(OC(F)F)c1)NC1CC2(CC2)C1` [Example 8, 1-[[2-(difluoromethoxy)pyridin-4-yl]methyl]-3-spiro[2.3]hexan-5-ylurea], the microsomal CLint at 0.5 μM [1] was 5.2 µL/min/mg and the EC50 [2, 4] was 60 nM.
With `CC(F)(F)c1cc(CNC(=O)NC2CC3(CCC3)C2)ccn1` [Example 9, 1-[[2-(1,1-difluoroethyl)pyridin-4-yl]methyl]-3-spiro[3.3]heptan-2-ylurea] the microsomal CLint at 0.5 μM [1] was 17.6 µL/min/mg and the EC50 [2, 4] was 190 nM.
In the case of `O=C(NCc1ccnc(C(F)(F)F)c1)NC1CC2(CCC2)C1` [Example 10], the EC50 [2, 4] is reported as 190 nM.
Compound `O=C(NCc1ccnc(OC(F)F)c1)NC1CCC2(CCC2)C1` (centres unmarked) [Example 11, 1-[[2-(difluoromethoxy)pyridin-4-yl]methyl]-3-spiro[3.4]octan-7-ylurea] has an EC50 [2, 4] of 20 nM.
Work on `O=C(NCc1ccnc(OCC(F)(F)F)c1)NC1CC2(CC2)C1` [Example 12, 1-spiro[2.3]hexan-5-yl-3-[[2-(2,2,2-trifluoroethoxy)pyridin-4-yl]methyl]urea] yielded a microsomal CLint at 0.5 μM [1] of 15.2 µL/min/mg and an EC50 [2, 4] of 170 nM.
`O=C(NC1CC2(CCC2)C1)NC(CO)c1ccnc(OCC(F)(F)F)c1` (centres unmarked) [Example 13, 1-[2-hydroxy-1-[2-(2,2,2-trifluoroethoxy)pyridin-4-yl]ethyl]-3-spiro[3.3]heptan-2-ylurea] gave an EC50 [2, 4] of 70 nM.
For `O=C(NCc1ccnc(OC(F)F)c1)NC1CC2(C1)CC2(F)F` (centres unmarked) [Example 15, 1-[[2-(difluoromethoxy)pyridin-4-yl]methyl]-3-(2,2-difluorospiro[2.3]hexan-5-yl)urea], the microsomal CLint at 0.5 μM [1] was 11.3 µL/min/mg and the EC50 [2, 4] was 3100 nM.
`O=C(NCc1ccnc(OC(F)F)c1)NC1CC2(CC(F)C2)C1` (centres unmarked) [Example 16, 1-[[2-(difluoromethoxy)pyridin-4-yl]methyl]-3-(2-fluorospiro[3.3]heptan-6-yl)urea] showed a microsomal CLint at 0.5 μM [1] of 10.7 µL/min/mg and an EC50 [2, 4] of 150 nM.
With `O=C(NCc1ccnc(OC(F)F)c1)NC1(CO)CC2(CCC2)C1` [Example 18, 1-[[2-(difluoromethoxy)pyridin-4-yl]methyl]-3-[2-(hydroxymethyl)spiro[3.3]heptan-2-yl]urea] the EC50 [2, 4] was 410 nM.
In the case of `O=C(NCc1ccnc(OC(F)F)c1)NC1CCC2(C1)CC2(F)F` (centres unmarked) [Example 19, 1-[[2-(difluoromethoxy)pyridin-4-yl]methyl]-3-(2,2-difluorospiro[2.4]heptan-6-yl)urea], the EC50 [3] is reported as > 30000 nM, the Kv7.5/7.3/Kv7.2 selectivity ratio [3] is reported as >86 and the EC50 [2, 4] is reported as 350 nM. For the same compound, the EC50 ([2]; Table A) was 350 nM.
With `O=C(NCc1ccnc(OC(F)F)c1)NC1COC12CCCCC2` (centres unmarked) [Example 20, 1-[[2-(difluoromethoxy)pyridin-4-yl]methyl]-3-(1-oxaspiro[3.5]nonan-3-yl)urea] the EC50 [2, 4] was 8430 nM.
Compound `O=C(NCc1ccnc(OC(F)F)c1)NC1COC2(CCC2)C1` (centres unmarked) [Example 22, 1-[[2-(difluoromethoxy)pyridin-4-yl]methyl]-3-(5-oxaspiro[3.4]octan-7-yl)urea] has a microsomal CLint at 0.5 μM [1] of 10.6 µL/min/mg and an EC50 [2, 4] of 1440 nM.
In the case of `O=C(NCc1ccnc(OC(F)F)c1)NC1CC12CCC2` (centres unmarked) [Example 23, 1-[[2-(difluoromethoxy)pyridin-4-yl]methyl]-3-spiro[2.3]hexan-2-ylurea], the EC50 [3] is reported as > 30000 nM, the Kv7.5/7.3/Kv7.2 selectivity ratio [3] is reported as >15 and the EC50 [2, 4] is reported as 1940 nM. The EC50 ([2]; Table A) was 1940 nM.
In the case of `O=C(NCc1ccnc(OC(F)F)c1)NC1C(F)(F)C12CCC2` (centres unmarked) [Example 24, 1-[[2-(difluoromethoxy)pyridin-4-yl]methyl]-3-(2,2-difluorospiro[2.3]hexan-1-yl)urea], the EC50 [3] is reported as > 30000 nM, the Kv7.5/7.3/Kv7.2 selectivity ratio [3] is reported as >89 and the EC50 [2, 4] is reported as 340 nM. It also gave an EC50 ([2]; Table A) of 340 nM.
With `O=C(NCc1ccnc(OC(F)F)c1)N[C@@H]1CC2(CCC2)[C@@H]1O` [Example 28, 1-[[2-(difluoromethoxy)pyridin-4-yl]methyl]-3-[(2R,3S)-3-hydroxyspiro[3.3]heptan-2-yl]urea] the EC50 [3] was > 30000 nM, the Kv7.5/7.3/Kv7.2 selectivity ratio [3] was >60 and the EC50 [2, 4] was 500 nM. For the same compound, the EC50 ([2]; Table A) was 500 nM.
Work on `O=C(NCc1ccnc(OCC(F)CF)c1)NC1CC2(CCC2)C1` (centres unmarked) [Example 29, 1-[[2-(2,3-difluoropropoxy)pyridin-4-yl]methyl]-3-spiro[3.3]heptan-2-ylurea] yielded an EC50 [2, 4] of 100 nM.
Compound `O=C(NCc1ccnc(OC(F)F)c1)NC1COC2(CCCCC2)C1` (centres unmarked) [Example 30, 1-[[2-(difluoromethoxy)pyridin-4-yl]methyl]-3-(1-oxaspiro[4.5]decan-3-yl)urea] has an EC50 [2, 4] of 450 nM.
Compound `O=C(NCc1ccnc(OC(F)F)c1)NC1CCC2(CCC2)OC1` (centres unmarked) [Example 32, 1-[[2-(difluoromethoxy)pyridin-4-yl]methyl]-3-(5-oxaspiro[3.5]nonan-7-yl)urea] has an EC50 [2, 4] of 550 nM.

Reference: patent US20240316020A1, “Novel Pyridine Compounds” (ICAGEN, LLC, priority 2021, published 2024)
